Results on 16 compounds are retold here after PubChem BioAssay (NCI).

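48-hour exposure; five concentrations; linearly interpolated endpoints. TGI is the concentration that stops growth completely.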 Bounds are passed on as bounds.

What all share (assay): NCI-60 cell line screen, 48 h
The test system of test [1] is CCRF-CEM leukemia.
Test [2] concerns HCC-2998 colon.
For test [3], the system named is HL-60(TB) leukemia.
Test [4] has as its system HOP-62 NSCLC.
Test [5] concerns MOLT-4 leukemia.
The test system of test [6] is RPMI-8226 leukemia.
Test [7] deals with CAKI-1 renal.
Test [8] has as its system NCI-H226 lung.
Test [9] relates to SK-MEL-5 melanoma.
For test [10], the system named is T-47D breast.

For the compound `COc1cccc2c1OC1Sc3ccccc3-c3nn(-c4ccccc4)c-2c31` (configuration not stated), the TGI in test [1], in test [2], in [3], in [4], in test [5] and in test [6] was greater than 100 µM throughout.

With `CCC12CCCN(Cc3ccccc3)C1c1c(n(C)c3ccccc13)C(CO)C2` (configuration not stated), the TGI in [7] was greater than 257 µM; in test [1], greater than 257 µM; in test [2], 121 µM; in test [3], 169 µM; in [4], 73.6 µM; in [5] it was 149 µM. Besides, the values for the TGI in [8], in [6] and in [9] were 104 µM, 108 µM and 76.9 µM, respectively.

As for `Cc1c(Cc2ccccc2)n(C(C)OCCN(OC(=O)Oc2ccccc2)C(=O)Oc2ccccc2)c(=O)[nH]c1=O` (configuration not stated), the TGI came to 33.9 µM in test [7]; 50 µM in test [1]; 31.5 µM in test [2]; 36.7 µM in test [4]; 46.3 µM in [5]; 79.6 µM in test [6]. In addition, the TGI in test [9] stood at 28.4 µM.

For the compound `CNC(=O)N(CCC#N)CCN(C(=O)NC)c1ccccc1`, the TGI in test [7], in test [1], in test [2], in test [4], in test [5] and in test [8] was greater than 100 µM in each case. The TGI in [6], in test [9] and in [10] was greater than 100 µM in each case.

For `Cc1cc(=O)oc2cc(OCCCOc3ccc4c(C)cc(=O)oc4c3)ccc12`, the TGI in [1], in [2], in test [3], in test [4], in [5] and in test [8] was greater than 100 µM in each case. Also, the TGI in [6] and in test [9] was greater than 100 µM throughout.

Take `Nc1nc(Cl)cc(OCC2(CO)CCCC2)n1`: the TGI in [1], in test [2], in [3], in test [4], in test [5] and in test [8] was greater than 100 µM each time. Further, the TGI in [6] and in [9] was greater than 100 µM each time.

As for `CC(C)(C)N/N=C(\C(=O)Nc1cccc(Cl)c1)C1C(=O)Nc2ccccc2S1=O` (configuration not stated), the TGI in [7], in test [1], in test [2], in [3], in test [4] and in [5] was greater than 100 µM throughout. Besides, the TGI in [8] and in test [9] was greater than 100 µM in each case.

For `CN(C)CN1CSC(=S)N(CN(C)C)C1`, the TGI was greater than 100 µM in test [7]; greater than 100 µM in [1]; greater than 100 µM in test [2]; greater than 100 µM in test [4]; 92.4 µM in test [5]; greater than 100 µM in test [8]. In addition, the TGI in test [9] and in test [10] was greater than 100 µM throughout.

Consider `O=c1c2c3c(sc2nc2n1N=CN(c1ccccc1)C2)CCCC3`, for which the TGI in test [7], in [1], in test [2], in test [4], in test [5] and in test [8] was greater than 100 µM throughout. The TGI in test [6], in [9] and in test [10] was greater than 100 µM in each case.

On to `COc1cccc2c1C(=O)c1c(O)c3c(c(O)c1C2=O)C[C@@](O)(C(C)=O)CC3S(=O)(=O)O` (some centres not stated), for which the TGI in [7], in test [1], in [2], in test [3], in [4] and in [5] was greater than 100 µM throughout. The TGI in test [8], in test [6] and in [9] was greater than 100 µM each time.

For `CCc1cc(C)cc2[n+]1CC=C2`, the TGI in test [7] was greater than 100 µM; in [2], greater than 100 µM; in test [3], 12.8 µM; in test [4], 51.3 µM; in [8], 80.8 µM.

On to `CSc1cc(Cl)c(C)cc1S(=O)(=O)NC(=O)NNc1ccc(F)cc1`, for which the TGI in [7], in test [2], in test [4], in test [5], in test [8] and in test [9] was greater than 100 µM in each case. Moreover, the TGI in test [10] was greater than 100 µM.

Take `O=C(CN1CCCC1=O)CS(=O)(=O)c1ccccc1`: the TGI in test [1], in test [2], in [3], in test [4], in test [5] and in [8] was greater than 100 µM throughout. Also, the TGI in test [6] and in test [9] was greater than 100 µM throughout.

For `Nc1nc(NCCOCP(=O)(O)O)c([N+](=O)[O-])c(=O)[nH]1`, the TGI in [1], in test [2], in test [3], in test [4], in [5] and in test [8] was greater than 100 µM each time. Also, in test [6], the TGI is greater than 100 µM.

For `CN1CCN(C(=O)CCC(=O)Nc2cc3c(c4ccccc24)-c2ccc4ccccc4c2C3)CC1`, the TGI in test [7] is 3.16 µM; in test [2], 2.7 µM; in test [4], 3.15 µM; in test [8] it was 3.93 µM; in test [9], 3 µM; in test [10] it was 3.57 µM.

With `O=c1cc(-c2ccccc2)[nH]c2ncccc12`, the TGI is greater than 100 µM in test [7]; greater than 100 µM in test [1]; greater than 42 µM in [2]; greater than 100 µM in test [4]; greater than 100 µM in [5]; greater than 100 µM in [6]. For the same compound, the results for the TGI in [9] and in [10] were greater than 60.6 µM and greater than 100 µM, respectively.
